Structures can show the parent of a compound that is named as a salt.
Columns and labels:
[1] = molecular target: T1, MRP2 (Homo sapiens, UniProt Q92887); assay: Vesicular transport inhibition assay, MRP2; assay type: biochemical; settings: membrane vesicles from HEK293 cells
T1 construct: host or cells: HEK293 (membrane vesicles)
Experimental: (§1) Experiment B4: Bile Acid Transporters Inhibition in the Liver. […] The compound was tested on a panel of 10 transporters: BSEP, MRP2, MRP3, MRP4 in a vesicular transport inhibition assay and NTCP, OAT1, OAT2v1, OATP1A2, OATP1B1, OATP1B3 in an uptake transporter inhibition assays. Vesicular transport inhibition assay was performed on membrane vesicles isolated from mammal HEK293 cells overexpressing human ABC transporters. Tested compound were incubated with vesicles and substrates for respective tested transporters. Incubation was performed in the presence of 4 mM ATP or AMP in order to differentiate between uptake by a transporter and passive diffusion into vesicles. In the case of MRP2 and MRP3, reactions were performed in the presence of 2 mM glutathione. Tested compounds were added to the reaction mixture dissolved in 0.75 μl of a solvent (1% of final incubation volume). Reaction mixtures were preincubated for 15 minutes at 37±1° C. Reactions were started by the addition of 25 μl of 12 mM MgATP (or 12 mM AMP) in test buffer, as a background control, separately preincubated.

[2] = molecular target: T2, MRP3 (Homo sapiens, UniProt O15438); assay: Vesicular transport inhibition assay, MRP3; assay type: biochemical; settings: membrane vesicles from HEK293 cells
T2 construct: host or cells: HEK293 (membrane vesicles)
T2 sequence (O15438 whole entry): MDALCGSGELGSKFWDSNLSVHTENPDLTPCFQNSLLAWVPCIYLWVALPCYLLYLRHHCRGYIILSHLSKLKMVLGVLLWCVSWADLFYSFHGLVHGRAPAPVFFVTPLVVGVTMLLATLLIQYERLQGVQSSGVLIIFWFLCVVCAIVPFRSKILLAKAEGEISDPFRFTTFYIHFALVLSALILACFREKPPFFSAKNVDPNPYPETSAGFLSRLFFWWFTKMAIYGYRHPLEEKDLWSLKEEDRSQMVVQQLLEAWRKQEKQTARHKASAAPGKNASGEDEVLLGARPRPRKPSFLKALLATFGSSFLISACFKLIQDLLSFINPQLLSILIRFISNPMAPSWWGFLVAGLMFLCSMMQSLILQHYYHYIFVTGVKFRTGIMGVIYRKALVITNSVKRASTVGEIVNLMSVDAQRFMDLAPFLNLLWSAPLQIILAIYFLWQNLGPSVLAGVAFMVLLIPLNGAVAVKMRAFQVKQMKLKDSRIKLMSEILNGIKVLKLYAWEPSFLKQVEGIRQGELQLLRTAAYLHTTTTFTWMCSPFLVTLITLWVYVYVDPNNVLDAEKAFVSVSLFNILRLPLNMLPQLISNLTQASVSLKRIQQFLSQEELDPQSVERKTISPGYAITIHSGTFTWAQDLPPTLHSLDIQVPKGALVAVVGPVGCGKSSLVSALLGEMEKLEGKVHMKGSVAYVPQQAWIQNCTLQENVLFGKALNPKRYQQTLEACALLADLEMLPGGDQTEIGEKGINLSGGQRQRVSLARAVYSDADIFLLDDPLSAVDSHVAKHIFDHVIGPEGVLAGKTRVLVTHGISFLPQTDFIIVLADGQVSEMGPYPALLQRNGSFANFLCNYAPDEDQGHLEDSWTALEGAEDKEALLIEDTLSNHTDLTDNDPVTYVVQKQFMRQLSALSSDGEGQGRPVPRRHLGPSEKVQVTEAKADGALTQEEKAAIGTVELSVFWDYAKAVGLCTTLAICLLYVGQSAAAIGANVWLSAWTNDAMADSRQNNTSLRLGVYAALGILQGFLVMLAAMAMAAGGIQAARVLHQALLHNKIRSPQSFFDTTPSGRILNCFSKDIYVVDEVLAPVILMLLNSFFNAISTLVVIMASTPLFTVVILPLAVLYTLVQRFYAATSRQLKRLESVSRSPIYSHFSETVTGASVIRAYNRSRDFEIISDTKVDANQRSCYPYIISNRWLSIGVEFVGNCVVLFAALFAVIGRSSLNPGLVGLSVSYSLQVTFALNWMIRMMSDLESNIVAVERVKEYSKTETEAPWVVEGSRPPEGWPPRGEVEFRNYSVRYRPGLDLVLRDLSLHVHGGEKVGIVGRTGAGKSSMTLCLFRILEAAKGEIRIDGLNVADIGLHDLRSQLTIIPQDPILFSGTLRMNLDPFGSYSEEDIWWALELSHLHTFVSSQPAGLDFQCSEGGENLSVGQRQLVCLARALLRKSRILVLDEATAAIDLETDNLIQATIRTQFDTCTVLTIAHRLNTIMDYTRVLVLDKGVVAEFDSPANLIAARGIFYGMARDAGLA
Experimental: as §1

[3] = molecular target: T3, OATP1B3 (Homo sapiens, UniProt Q9NPD5); assay: Uptake transporter inhibition assay, OATP1B3; assay type: cell-based; settings: HEK293 cells overexpressing transporter
T3 construct: host or cells: HEK293
T3 sequence (Q9NPD5 1-702): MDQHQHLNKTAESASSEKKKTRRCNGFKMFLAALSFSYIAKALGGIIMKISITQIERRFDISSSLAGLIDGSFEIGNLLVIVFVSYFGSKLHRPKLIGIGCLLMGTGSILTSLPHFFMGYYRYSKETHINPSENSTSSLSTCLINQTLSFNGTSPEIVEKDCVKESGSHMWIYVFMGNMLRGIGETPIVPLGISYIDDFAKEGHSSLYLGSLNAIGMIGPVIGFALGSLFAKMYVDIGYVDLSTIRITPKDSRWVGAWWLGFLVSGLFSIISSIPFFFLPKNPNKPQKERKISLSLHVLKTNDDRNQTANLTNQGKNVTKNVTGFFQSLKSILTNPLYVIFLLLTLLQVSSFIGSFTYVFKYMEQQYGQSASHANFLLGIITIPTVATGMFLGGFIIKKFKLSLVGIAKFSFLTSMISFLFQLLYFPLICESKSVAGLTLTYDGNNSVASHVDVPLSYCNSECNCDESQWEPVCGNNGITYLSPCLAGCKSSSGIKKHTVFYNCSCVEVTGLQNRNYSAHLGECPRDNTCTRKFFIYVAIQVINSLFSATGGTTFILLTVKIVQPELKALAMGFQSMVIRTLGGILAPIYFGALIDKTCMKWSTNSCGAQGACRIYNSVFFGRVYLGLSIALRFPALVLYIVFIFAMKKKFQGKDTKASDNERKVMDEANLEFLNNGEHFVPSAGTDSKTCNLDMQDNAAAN
Experimental: (§2) Experiment B4: Bile Acid Transporters Inhibition in the Liver.
(§3) The compound was tested on a panel of 10 transporters: BSEP, MRP2, MRP3, MRP4 in a vesicular transport inhibition assay and NTCP, OAT1, OAT2v1, OATP1A2, OATP1B1, OATP1B3 in an uptake transporter inhibition assays.
(§4) Transporter uptake inhibition test was performed on mammal HEK293 cells overexpressing of a respective transporter. Cells were cultured at 37±1° C. and seeded on 96-well tissue culture plate at 1×10^5/well. Substrate was removed prior to experiment and cells were washed twice with 100 μl of respective buffer (HK pH 7.4 for OATP1B1 and HBSS pH 7.4 for NTCP, OAT1, OAT2v1, OATP1A2, and OATP1B3). Uptake studies were performed at 37±1° C. in 50 μl of respective buffer containing radioactively tagged substrate and tested compound or solvent.
(§5) After experiment cells were washed twice with 100 μl of ice-cold respective buffer and lysed with 50 μl of 0.1M NaOH. Transport of radioactively tagged substrate was determined by scintillation counter measurement.

[4] = molecular target: T4, OATP1A2 (Homo sapiens, UniProt P46721); assay: Uptake transporter inhibition assay, OATP1A2; assay type: cell-based; settings: HEK293 cells overexpressing transporter
T4 construct: host or cells: HEK293
T4 sequence (P46721 1-670): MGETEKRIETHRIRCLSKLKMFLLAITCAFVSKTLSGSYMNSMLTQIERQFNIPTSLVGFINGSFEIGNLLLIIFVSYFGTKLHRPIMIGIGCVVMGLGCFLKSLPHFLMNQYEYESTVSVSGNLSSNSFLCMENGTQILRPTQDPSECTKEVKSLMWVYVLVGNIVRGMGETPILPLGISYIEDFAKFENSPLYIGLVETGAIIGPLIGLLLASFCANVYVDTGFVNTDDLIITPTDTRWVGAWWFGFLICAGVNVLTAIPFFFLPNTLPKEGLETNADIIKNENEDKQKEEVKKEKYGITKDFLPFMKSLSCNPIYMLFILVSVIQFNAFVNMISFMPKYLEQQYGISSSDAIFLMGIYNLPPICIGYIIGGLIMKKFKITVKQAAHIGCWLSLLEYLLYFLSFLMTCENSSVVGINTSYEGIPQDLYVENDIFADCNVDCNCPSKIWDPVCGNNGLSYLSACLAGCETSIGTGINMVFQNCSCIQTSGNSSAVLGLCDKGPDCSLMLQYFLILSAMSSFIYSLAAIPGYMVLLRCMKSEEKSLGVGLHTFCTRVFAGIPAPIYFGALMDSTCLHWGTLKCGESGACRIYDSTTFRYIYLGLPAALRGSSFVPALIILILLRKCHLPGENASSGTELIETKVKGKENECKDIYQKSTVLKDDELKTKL
Experimental: as §2, §3, §4, §5

T1 sequence (Q92887 whole entry): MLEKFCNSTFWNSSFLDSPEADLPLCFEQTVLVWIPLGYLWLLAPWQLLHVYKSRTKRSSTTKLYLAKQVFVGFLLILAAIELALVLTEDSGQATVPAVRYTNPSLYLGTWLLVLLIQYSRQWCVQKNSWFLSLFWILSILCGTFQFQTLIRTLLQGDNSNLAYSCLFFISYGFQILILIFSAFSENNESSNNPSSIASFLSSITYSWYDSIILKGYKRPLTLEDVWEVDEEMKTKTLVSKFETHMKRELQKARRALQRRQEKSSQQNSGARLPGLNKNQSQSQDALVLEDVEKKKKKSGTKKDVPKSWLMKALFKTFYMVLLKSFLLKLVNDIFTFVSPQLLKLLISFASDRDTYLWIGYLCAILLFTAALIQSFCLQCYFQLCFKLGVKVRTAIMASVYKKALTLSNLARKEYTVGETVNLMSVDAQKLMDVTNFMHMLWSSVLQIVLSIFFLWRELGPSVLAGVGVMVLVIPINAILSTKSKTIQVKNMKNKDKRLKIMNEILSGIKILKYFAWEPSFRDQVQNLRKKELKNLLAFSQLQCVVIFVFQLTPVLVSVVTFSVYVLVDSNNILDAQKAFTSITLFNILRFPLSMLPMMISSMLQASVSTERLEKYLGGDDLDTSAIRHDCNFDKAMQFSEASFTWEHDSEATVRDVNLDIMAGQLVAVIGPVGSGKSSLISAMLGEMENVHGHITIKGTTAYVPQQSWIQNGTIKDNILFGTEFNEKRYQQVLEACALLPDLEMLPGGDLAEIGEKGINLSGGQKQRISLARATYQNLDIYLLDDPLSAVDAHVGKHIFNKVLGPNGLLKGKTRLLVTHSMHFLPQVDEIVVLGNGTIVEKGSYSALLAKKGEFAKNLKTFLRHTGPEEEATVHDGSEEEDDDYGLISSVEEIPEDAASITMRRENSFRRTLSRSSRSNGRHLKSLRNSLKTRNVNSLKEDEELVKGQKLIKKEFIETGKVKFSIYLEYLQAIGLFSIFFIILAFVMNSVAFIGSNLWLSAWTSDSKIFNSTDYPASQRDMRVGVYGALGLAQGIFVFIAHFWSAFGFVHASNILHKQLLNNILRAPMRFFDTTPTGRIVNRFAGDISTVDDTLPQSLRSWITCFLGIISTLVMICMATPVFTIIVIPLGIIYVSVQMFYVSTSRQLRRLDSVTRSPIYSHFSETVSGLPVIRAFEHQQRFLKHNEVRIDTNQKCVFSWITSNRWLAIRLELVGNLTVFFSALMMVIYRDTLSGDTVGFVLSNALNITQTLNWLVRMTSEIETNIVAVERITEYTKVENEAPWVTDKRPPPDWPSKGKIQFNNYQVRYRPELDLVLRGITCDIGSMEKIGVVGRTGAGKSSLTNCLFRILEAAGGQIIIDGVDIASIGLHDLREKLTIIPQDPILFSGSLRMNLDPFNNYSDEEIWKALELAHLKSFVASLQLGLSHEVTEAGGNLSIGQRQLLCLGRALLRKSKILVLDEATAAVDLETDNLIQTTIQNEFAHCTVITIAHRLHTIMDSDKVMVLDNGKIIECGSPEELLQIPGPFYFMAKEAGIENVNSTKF

Structure (SMILES): CC#C[C@@H](CC(=O)O)c1ccc(OCC(C)=C(C)C)cc1 [Example S1, (3S)-3-{4-[(2,3-dimethylbut-2-en-1-yl)oxy]phenyl}hex-4-ynoic acid calcium salt]
- IC50 ([1]; symbol per footnote): > 100 µM
- IC50 ([2]; symbol per footnote): > 100 µM
- IC50 [3]: 42.9 µM
- IC50 [4]: 118 µM

Structure (SMILES): Cc1cc(OCCCS(C)(=O)=O)cc(C)c1-c1cccc(COc2ccc3c(c2)OC[C@H]3CC(=O)O)c1 [Example R1, 2[(3S)-6-({3-[4-(3-methanesulfonylpropoxy)-2,6-dimethylphenyl]-phenyl}methoxy)-2,3-dihydro-1-benzofuran-3-yl]acetic acid, reference compound]
- IC50 ([1]; 2 mM glutathione): 48.1 µM
- IC50 ([2]; 2 mM glutathione): 31.8 µM
- IC50 [3]: 3.44 µM
- IC50 [4]: 10.6 µM
